In general, refractive index refers to a measure of how strongly the sample bends light.

SMILES strings stand for the structures. ± gives the expanded uncertainty stated by the source.

Drawing on the NIST ThermoML archive (doi:10.1021/je500881x), this text covers refractive index for 2 compounds.

The series in a line: refractive index (Na D-line) (dimensionless); wn = mass fraction of the nth substance listed. As to conditions: 288.15 K, 101 kPa, Liquid, Standard Abbe refractometry.

Turning to `[Br-].[Br-].[Ca+2]` [calcium bromide] + O, the refractive index (w1 = 0.5794) worked out at 1.4892 ± 0.0004.

Turning to `[Br-].[Na+]` [sodium bromide] + O, the refractive index (w1 = 0.4704) amounted to 1.4196 ± 0.0004.
